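Five compound concentrations were applied to cells in 96-well plates for 48 hours; endpoints were derived by simple linear interpolation of the resulting dose-response curve. GI50 = concentration required for 50% inhibition of growth.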 Active and inactive are the calls of the source. Rule as the data show it: active = GI50 up to about 1.1 µM and inactive = higher.
What was measured:
Test in all cases: inhibition of tumour cell growth, NCI panel, 48 h
[1] = tested on: SK-OV-3
[2] = tested on: DU-145
[3] = tested on: UO-31
[4] = tested on: OVCAR-8
[5] = tested on: MDA-N
[6] = tested on: M14
[7] = tested on: T47D
[8] = tested on: A498
[9] = tested on: MDA-MB-231
[10] = tested on: COLO 205
[11] = tested on: SF-268
[12] = tested on: IGROV-1
[13] = tested on: OVCAR-4
[14] = tested on: NCI-H23
[15] = tested on: UACC-62
[16] = tested on: LOX IMVI
[17] = tested on: SNB-75
[18] = tested on: SNB-19
[19] = tested on: K562
[20] = tested on: NCI-H460

| Compound | GI50 [1] | GI50 [2] | GI50 [3] | GI50 [4] | GI50 [5] | GI50 [6] | GI50 [7] | GI50 [8] | GI50 [9] | GI50 [10] | GI50 [11] | GI50 [12] | GI50 [13] | GI50 [14] | GI50 [15] | GI50 [16] | GI50 [17] | GI50 [18] | GI50 [19] | GI50 [20] |
| --- | --- | --- | --- | --- | --- | --- | --- | --- | --- | --- | --- | --- | --- | --- | --- | --- | --- | --- | --- | --- |
| CC(C)(C)c1cc(Br)c(O)c(CN(Cc2cc(C(C)(C)C)cc(Br)c2O)C2CCCCC2)c1 | 15.8 µM (inactive) | 13.9 µM (inactive) | 14.4 µM (inactive) | 15.1 µM (inactive) | 14.5 µM (inactive) | 12.9 µM (inactive) | 9.68 µM (inactive) | 13.5 µM (inactive) | 15 µM (inactive) | 11.2 µM (inactive) | 13.5 µM (inactive) | 15.3 µM (inactive) | 10.5 µM (inactive) | 13.5 µM (inactive) | 12.7 µM (inactive) | 16.3 µM (inactive) | 8.55 µM (inactive) | 14.1 µM (inactive) | 13.3 µM (inactive) |  |
| NC(Cc1ccccc1)C(=O)NC(Cc1ccccc1)NC(=O)C(Cc1c[nH]c2ccccc12)C(=O)O (stereo unspecified) | > 100 µM (inactive) | > 100 µM (inactive) | 51.9 µM (inactive) | > 100 µM (inactive) | > 100 µM (inactive) | > 100 µM (inactive) | > 100 µM (inactive) | > 100 µM (inactive) | > 100 µM (inactive) | > 100 µM (inactive) | > 100 µM (inactive) | > 100 µM (inactive) | > 100 µM (inactive) | > 100 µM (inactive) | > 100 µM (inactive) | > 100 µM (inactive) | > 100 µM (inactive) | > 100 µM (inactive) |  | > 100 µM (inactive) |
| COc1cccc(/C=C/c2cnc3ccccc3n2)c1OC | 71.6 µM (inactive) | 60.7 µM (inactive) | 34.1 µM (inactive) | 29.7 µM (inactive) | 61.1 µM (inactive) | 46.2 µM (inactive) | 23.2 µM (inactive) | 40.4 µM (inactive) | 22 µM (inactive) | 48.3 µM (inactive) | 31.3 µM (inactive) | 39.1 µM (inactive) | 25.6 µM (inactive) | 31.9 µM (inactive) | 28.4 µM (inactive) | 36.6 µM (inactive) | 13.4 µM (inactive) |  | 71 µM (inactive) | 24.8 µM (inactive) |
| O=[N+]([O-])c1nccn1CCCNCCCn1ccnc1[N+](=O)[O-] | > 100 µM (inactive) | > 100 µM (inactive) | > 100 µM (inactive) | > 100 µM (inactive) | > 100 µM (inactive) | > 100 µM (inactive) | > 100 µM (inactive) | > 100 µM (inactive) | > 100 µM (inactive) | > 100 µM (inactive) | > 100 µM (inactive) | > 100 µM (inactive) | > 100 µM (inactive) | > 100 µM (inactive) | > 100 µM (inactive) | 74.6 µM (inactive) | > 100 µM (inactive) |  | > 100 µM (inactive) | > 100 µM (inactive) |
| COC(=O)/C(C#N)=C(/NCCN)Nc1ccccc1 | > 100 µM (inactive) | > 100 µM (inactive) | > 100 µM (inactive) | > 100 µM (inactive) | > 100 µM (inactive) | > 100 µM (inactive) | > 100 µM (inactive) | > 100 µM (inactive) | > 100 µM (inactive) | > 100 µM (inactive) | > 100 µM (inactive) | > 100 µM (inactive) | > 100 µM (inactive) | > 100 µM (inactive) |  | > 100 µM (inactive) | 57.3 µM (inactive) | > 100 µM (inactive) | > 100 µM (inactive) | > 100 µM (inactive) |
| CN(C)/C=N/S(=O)(=O)c1nn2c(C=O)c(-c3ccccc3)nc2s1 | > 80.5 µM (inactive) | 23.4 µM (inactive) | 5.36 µM (inactive) | 8.41 µM (inactive) | 10.2 µM (inactive) | 2.51 µM (inactive) | 15.7 µM (inactive) | 67.6 µM (inactive) | 6.81 µM (inactive) | 4.53 µM (inactive) | 29.5 µM (inactive) |  | 22.7 µM (inactive) | 19.7 µM (inactive) | 18.2 µM (inactive) | 14.7 µM (inactive) | 59.7 µM (inactive) | 36 µM (inactive) | 3.9 µM (inactive) | 20.8 µM (inactive) |
| N#CC(C#N)=C/C=C/c1ccccc1[N+](=O)[O-] | > 10 µM (inactive) | > 10 µM (inactive) | 5.78 µM (inactive) | 1.96 µM (inactive) | 2.44 µM (inactive) |  | > 10 µM (inactive) | > 10 µM (inactive) | 2.59 µM (inactive) | 3.93 µM (inactive) | > 10 µM (inactive) | > 10 µM (inactive) | 6 µM (inactive) | 4.45 µM (inactive) | 3 µM (inactive) | 2.52 µM (inactive) | > 10 µM (inactive) | > 10 µM (inactive) | 3.21 µM (inactive) | 9.57 µM (inactive) |
| CC(=O)Oc1ccc2oc(=O)cc(C)c2c1 |  | > 100 µM (inactive) | > 100 µM (inactive) | > 100 µM (inactive) | > 100 µM (inactive) | > 100 µM (inactive) | > 100 µM (inactive) | > 100 µM (inactive) | > 100 µM (inactive) | > 100 µM (inactive) | > 100 µM (inactive) | > 100 µM (inactive) | > 100 µM (inactive) | > 100 µM (inactive) |  | > 100 µM (inactive) | > 100 µM (inactive) | > 100 µM (inactive) | > 100 µM (inactive) | > 100 µM (inactive) |
| Nc1nc(Cl)cc(NCC2(CO)CC(CCCc3ccccc3)C2)n1 (stereo unspecified) | 41.4 µM (inactive) | > 100 µM (inactive) | 13.8 µM (inactive) | > 72.1 µM (inactive) | > 100 µM (inactive) | > 100 µM (inactive) | 2.31 µM (inactive) | > 63.1 µM (inactive) | > 100 µM (inactive) | > 100 µM (inactive) | > 100 µM (inactive) | > 72.8 µM (inactive) | > 100 µM (inactive) |  | > 100 µM (inactive) | 0.282 µM (active) | > 46 µM (inactive) | > 71.1 µM (inactive) | 2.11 µM (inactive) | > 69.5 µM (inactive) |
| O=C(OCCN1CCCCC1)C(c1ccccc1)C1(O)CCSCC1 (stereo unspecified) | > 100 µM (inactive) | > 100 µM (inactive) | > 100 µM (inactive) | > 100 µM (inactive) | > 100 µM (inactive) | > 100 µM (inactive) | > 100 µM (inactive) | > 100 µM (inactive) | > 100 µM (inactive) | > 100 µM (inactive) | > 100 µM (inactive) | > 100 µM (inactive) | > 100 µM (inactive) | > 100 µM (inactive) | > 100 µM (inactive) | > 100 µM (inactive) | 83.4 µM (inactive) | > 100 µM (inactive) | > 100 µM (inactive) | > 100 µM (inactive) |
| CN1c2ccccc2C(=O)Nc2cnc(Cl)nc21 | > 100 µM (inactive) | > 100 µM (inactive) | > 100 µM (inactive) | 65.2 µM (inactive) | > 100 µM (inactive) | > 100 µM (inactive) | > 100 µM (inactive) | 73.6 µM (inactive) | 44.3 µM (inactive) | > 100 µM (inactive) |  | > 100 µM (inactive) | 93.1 µM (inactive) | > 100 µM (inactive) | > 100 µM (inactive) | > 100 µM (inactive) | 39.2 µM (inactive) | 36.6 µM (inactive) | > 100 µM (inactive) |  |
| CCOC(=O)c1sc2[n+](c1C)C(=O)/C(=C/c1ccc([N+](=O)[O-])cc1)S2 | 23.8 µM (inactive) | 31.3 µM (inactive) | 15 µM (inactive) | 19.5 µM (inactive) | 27.7 µM (inactive) | 31.6 µM (inactive) | 25.5 µM (inactive) | > 100 µM (inactive) | 46.6 µM (inactive) | 30.7 µM (inactive) | 12.9 µM (inactive) |  | 56.5 µM (inactive) | 16.1 µM (inactive) | 17.9 µM (inactive) | 25.2 µM (inactive) | 20.5 µM (inactive) | 45.2 µM (inactive) | 20.9 µM (inactive) | 19.7 µM (inactive) |
| CN(C)c1ncc(-c2c[nH]c3ccccc23)nc1-c1c[nH]c2ccccc12 | 7.66 µM (inactive) | 7.28 µM (inactive) | 3.73 µM (inactive) | 6.93 µM (inactive) | 2.08 µM (inactive) | 1.89 µM (inactive) | 3.23 µM (inactive) | 2.14 µM (inactive) | 2.07 µM (inactive) | 2.3 µM (inactive) | 10.6 µM (inactive) | 3.24 µM (inactive) | 5.32 µM (inactive) |  | 1.99 µM (inactive) | 2.51 µM (inactive) | 1.15 µM (inactive) | 4.12 µM (inactive) | 2.8 µM (inactive) | 2.12 µM (inactive) |
| O=C1c2cccc(O)c2C(=O)c2c(OC3OC(CO)C(O)C(O)C3O)cccc21 (stereo unspecified) | 48.2 µM (inactive) | 32.2 µM (inactive) | 35.2 µM (inactive) | 31.8 µM (inactive) | 28.6 µM (inactive) | 21.5 µM (inactive) | 20.4 µM (inactive) | > 100 µM (inactive) | 21.3 µM (inactive) | 19.4 µM (inactive) | 22.9 µM (inactive) | 39.2 µM (inactive) | 16.1 µM (inactive) | 15.3 µM (inactive) | 49.8 µM (inactive) | 37.5 µM (inactive) | 24 µM (inactive) | 33.7 µM (inactive) | 48 µM (inactive) | 17.9 µM (inactive) |
